Where two headings read alike, the source gives them in different places.
Columns and labels:
IKZF1 = target: T1, IKZF1 (Homo sapiens, UniProt Q13422+Q96SW2); test: Western-blot assay of substrate protein degradation in hPBMCs, IKZF1; format: cell-based; conditions: 24 hours of compound treatment
T1 construct: endogenous in cells; host or cells: hPBMCs (Milecell Biotechnologies)

IKZF3 = target: T2, IKZF3 (Homo sapiens, UniProt Q96SW2+Q9UKT9); test: Western-blot assay of substrate protein degradation in hPBMCs, IKZF3; format: cell-based; conditions: 24 hours of compound treatment
T2 construct: endogenous in cells; host or cells: hPBMCs (Milecell Biotechnologies)
T2 sequence (Q9UKT9 whole entry): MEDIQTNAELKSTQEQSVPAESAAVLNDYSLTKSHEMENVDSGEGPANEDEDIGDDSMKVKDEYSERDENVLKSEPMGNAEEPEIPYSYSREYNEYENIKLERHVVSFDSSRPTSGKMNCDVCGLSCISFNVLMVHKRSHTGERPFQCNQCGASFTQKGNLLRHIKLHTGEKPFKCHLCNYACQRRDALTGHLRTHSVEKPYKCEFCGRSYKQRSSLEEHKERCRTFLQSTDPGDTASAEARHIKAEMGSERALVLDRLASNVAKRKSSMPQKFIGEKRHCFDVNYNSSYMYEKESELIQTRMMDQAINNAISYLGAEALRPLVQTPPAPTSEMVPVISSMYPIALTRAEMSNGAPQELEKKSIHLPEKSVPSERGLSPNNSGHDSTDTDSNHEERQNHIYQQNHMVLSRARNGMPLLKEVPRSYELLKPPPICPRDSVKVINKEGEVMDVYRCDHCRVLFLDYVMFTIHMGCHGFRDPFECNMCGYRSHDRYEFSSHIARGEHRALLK
T2 sequence (Q96SW2 whole entry): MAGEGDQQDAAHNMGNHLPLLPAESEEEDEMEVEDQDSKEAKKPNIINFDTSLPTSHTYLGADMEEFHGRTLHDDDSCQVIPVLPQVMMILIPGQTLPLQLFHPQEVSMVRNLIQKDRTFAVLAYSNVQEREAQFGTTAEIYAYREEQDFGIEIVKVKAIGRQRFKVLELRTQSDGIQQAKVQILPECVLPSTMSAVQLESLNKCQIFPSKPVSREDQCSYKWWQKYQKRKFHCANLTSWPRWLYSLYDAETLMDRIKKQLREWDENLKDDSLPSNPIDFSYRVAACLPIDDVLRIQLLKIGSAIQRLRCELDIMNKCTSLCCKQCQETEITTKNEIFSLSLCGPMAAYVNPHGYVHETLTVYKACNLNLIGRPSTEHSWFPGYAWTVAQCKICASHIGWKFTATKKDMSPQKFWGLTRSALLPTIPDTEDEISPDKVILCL
T2 sequence (Q16531 whole entry partner): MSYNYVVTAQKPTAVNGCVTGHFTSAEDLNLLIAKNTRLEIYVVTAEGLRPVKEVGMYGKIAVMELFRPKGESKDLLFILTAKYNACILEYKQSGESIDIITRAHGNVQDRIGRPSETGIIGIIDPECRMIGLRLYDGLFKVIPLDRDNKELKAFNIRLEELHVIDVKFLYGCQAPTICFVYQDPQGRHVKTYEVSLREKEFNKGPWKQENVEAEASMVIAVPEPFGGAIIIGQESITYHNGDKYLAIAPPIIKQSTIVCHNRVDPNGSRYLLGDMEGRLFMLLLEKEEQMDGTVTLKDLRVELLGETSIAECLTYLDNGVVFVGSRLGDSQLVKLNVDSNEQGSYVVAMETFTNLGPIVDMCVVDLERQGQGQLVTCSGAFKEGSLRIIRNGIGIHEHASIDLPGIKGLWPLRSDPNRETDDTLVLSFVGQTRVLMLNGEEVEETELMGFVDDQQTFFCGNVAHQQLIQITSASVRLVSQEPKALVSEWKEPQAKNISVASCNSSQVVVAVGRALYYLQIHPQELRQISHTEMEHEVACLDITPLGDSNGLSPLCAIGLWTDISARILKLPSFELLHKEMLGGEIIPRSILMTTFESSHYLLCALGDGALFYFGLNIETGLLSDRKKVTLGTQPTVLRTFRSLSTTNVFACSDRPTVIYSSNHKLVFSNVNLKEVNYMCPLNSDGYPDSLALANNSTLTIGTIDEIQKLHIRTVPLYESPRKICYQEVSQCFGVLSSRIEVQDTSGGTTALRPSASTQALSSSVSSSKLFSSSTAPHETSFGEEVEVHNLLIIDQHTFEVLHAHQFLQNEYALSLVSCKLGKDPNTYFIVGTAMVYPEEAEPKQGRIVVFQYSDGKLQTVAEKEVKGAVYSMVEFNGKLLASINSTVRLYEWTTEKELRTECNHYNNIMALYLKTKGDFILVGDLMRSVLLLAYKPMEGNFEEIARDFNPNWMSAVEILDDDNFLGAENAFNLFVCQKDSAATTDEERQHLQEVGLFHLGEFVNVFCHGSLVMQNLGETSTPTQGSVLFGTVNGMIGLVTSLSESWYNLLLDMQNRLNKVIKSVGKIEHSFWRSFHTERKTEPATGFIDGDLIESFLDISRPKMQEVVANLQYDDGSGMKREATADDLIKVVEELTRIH

MV-4-11 = test: Tumor cell proliferation inhibition (CellTiter-Meiluncell Luminescent Cell Viability Assay), MV-4-11
IKZF2 = target: T3, IKZF2 (Homo sapiens, UniProt Q96SW2+Q9UKS7); test: Western-blot assay of substrate protein degradation in hPBMCs, IKZF2; format: cell-based; conditions: 24 hours of compound treatment
T3 construct: endogenous in cells; host or cells: hPBMCs (Milecell Biotechnologies)

GSPT1 = target: T4, GSPT1 (Homo sapiens, UniProt P15170+Q96SW2); test: Western-blot assay of substrate protein degradation in hPBMCs, GSPT1; format: cell-based; conditions: 24 hours of compound treatment
T4 construct: endogenous in cells; host or cells: hPBMCs (Milecell Biotechnologies)
T4 sequence (P15170 whole entry): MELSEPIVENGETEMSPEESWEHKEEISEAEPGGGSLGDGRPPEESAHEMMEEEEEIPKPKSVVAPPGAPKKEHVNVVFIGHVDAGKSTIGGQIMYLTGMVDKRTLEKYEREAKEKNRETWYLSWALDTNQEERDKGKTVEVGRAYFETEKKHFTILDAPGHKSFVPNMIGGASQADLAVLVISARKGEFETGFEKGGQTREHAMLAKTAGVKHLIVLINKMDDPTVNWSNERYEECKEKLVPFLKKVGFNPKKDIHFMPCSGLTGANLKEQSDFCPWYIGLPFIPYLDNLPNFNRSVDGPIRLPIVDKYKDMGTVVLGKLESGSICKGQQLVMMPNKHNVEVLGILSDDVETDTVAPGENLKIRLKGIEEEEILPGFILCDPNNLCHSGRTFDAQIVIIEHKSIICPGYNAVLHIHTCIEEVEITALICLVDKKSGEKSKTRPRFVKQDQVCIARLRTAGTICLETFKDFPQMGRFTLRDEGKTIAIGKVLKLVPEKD
T4 sequence (Q96SW2 whole entry): as the sequence (Q96SW2 whole entry) above
T4 sequence (Q16531 whole entry partner): as the sequence (Q16531 whole entry partner) above

SR = test: Tumor cell proliferation inhibition (CellTiter-Meiluncell Luminescent Cell Viability Assay), SR; conditions: Homo sapiens, 96 h, read-out: inhibitory activity (IC50, nM) against tumor cells proliferation, SR
SW620 = test: Tumor cell proliferation inhibition (CellTiter-Meiluncell Luminescent Cell Viability Assay), SW620; conditions: Homo sapiens, SW-620, 96 h, read-out: inhibitory activity (IC50, nM) against tumor cells proliferation, SW620
Procedure: (§1) The tumor cells used herein were cultured in a cell culture medium listed in table 2 at 37°C in an incubator with 5% CO2. Prior to experimentation, all cell lines used were correctly identified by STR profiling, and tested negative for mycoplasma contamination using a mycoplasma detection kit through routine screenings.
(§2) On the following day, the test compounds of the present disclosure were subjected to serial dilution. […] Subsequently, 0.5 µL of the test compound dilution was transferred into the 96-well plate containing the cells, with each well containing 100 µL of cell culture medium. […] Into the 96-well plate, the diluted test compounds and corresponding detection reagents were added, resulting in final test compound concentrations of 500 nM and 10 nM, respectively. The experimental procedure is described below using the diluted 2 µM test compound as an example.
(§3) After the cells were treated with the compounds of the present disclosure for a specified period (the treatment durations were shown in Table 3), the cell viability assay reagent was added to the culture medium according to the kit's instructions to determine cell viability. […] All controls were treated using the same procedure as the compounds of the present disclosure. The growth inhibition curves for the compounds of the present disclosure were plotted using Prism GraphPad software, and the IC50 values were calculated therefrom.

MM.1R = test: Tumor cell proliferation inhibition (CellTiter-Meiluncell Luminescent Cell Viability Assay), MM.1R; conditions: Homo sapiens, 96 h, read-out: inhibitory activity (IC50, nM) against tumor cells proliferation, MM.1R
CK1α = target: T5, CK1α (Homo sapiens, UniProt P48729+Q96SW2); test: Western-blot assay of substrate protein degradation in hPBMCs, CK1α; format: cell-based; conditions: 24 hours of compound treatment, compounds tested at 50 nM and 500 nM (concentration of the table not stated)
T5 construct: endogenous in cells; host or cells: hPBMCs (Milecell Biotechnologies)
T5 sequence (P48729 whole entry): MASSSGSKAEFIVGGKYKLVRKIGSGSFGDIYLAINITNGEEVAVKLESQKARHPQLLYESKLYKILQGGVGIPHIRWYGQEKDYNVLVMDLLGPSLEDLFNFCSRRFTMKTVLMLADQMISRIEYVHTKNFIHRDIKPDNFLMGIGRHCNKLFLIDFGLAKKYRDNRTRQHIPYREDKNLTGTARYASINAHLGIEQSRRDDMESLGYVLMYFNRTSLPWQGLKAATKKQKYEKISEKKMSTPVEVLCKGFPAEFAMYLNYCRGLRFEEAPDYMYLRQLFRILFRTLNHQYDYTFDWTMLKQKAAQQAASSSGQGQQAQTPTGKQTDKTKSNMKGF
T5 sequence (Q96SW2 whole entry): as the sequence (Q96SW2 whole entry) above
T5 sequence (Q16531 whole entry partner): as the sequence (Q16531 whole entry partner) above

[1] = test system: Human acute T lymphocytic leukemia cells (Molt-4); test: Tumor cell proliferation inhibition (CellTiter-Meiluncell Luminescent Cell Viability Assay), Molt-4; conditions: MOLT-4, 96 h, read-out: inhibitory activity (IC50, nM) against tumor cells proliferation, Molt 4
CCRF-CEM = test: Tumor cell proliferation inhibition (CellTiter-Meiluncell Luminescent Cell Viability Assay), CCRF-CEM; conditions: Homo sapiens, 96 h, read-out: inhibitory activity (IC50, nM) against tumor cells proliferation, CCRF-CEM
Vcap = test: Tumor cell proliferation inhibition (CellTiter-Meiluncell Luminescent Cell Viability Assay), Vcap; conditions: Homo sapiens, 96 h, read-out: inhibitory activity (IC50, nM) against tumor cells proliferation, Vcap
[2] = test system: Human breast cancer cells (MDA-MB-231); test: Tumor cell proliferation inhibition (CellTiter-Meiluncell Luminescent Cell Viability Assay), MDA-MB-231; conditions: MDA-MB-231, 96 h, read-out: inhibitory activity (IC50, nM) against tumor cells proliferation, MDA-MB-231
[3] = target: T6, human Cereblon WT GST-tagged protein (Homo sapiens, UniProt Q96SW2); test: CRBN-binding affinity by HTRF (CEREBLON BINDING kit)
T6 construct: purchased CISBIO 64BDCRBNPEH
T6 sequence (Q96SW2 whole entry): as the sequence (Q96SW2 whole entry) above

MGC803 = test: Tumor cell proliferation inhibition (CellTiter-Meiluncell Luminescent Cell Viability Assay), MGC803; conditions: Homo sapiens, MGC-803, 96 h, read-out: inhibitory activity (IC50, nM) against tumor cells proliferation, MGC803
Procedure: as §1
On the following day, the test compounds of the present disclosure were subjected to serial dilution. […] Subsequently, 0.5 µL of the test compound dilution was transferred into the 96-well plate containing the cells, with each well containing 100 µL of cell culture medium. […] Into the 96-well plate, the diluted test compounds and corresponding detection reagents were added, resulting in final test compound concentrations of 500 nM and 10 nM, respectively.
as §3

WEE1 = target: T7, WEE1 (Homo sapiens, UniProt P30291+Q96SW2); test: Western-blot assay of substrate protein degradation in hPBMCs, WEE1; format: cell-based; conditions: 24 hours of compound treatment, compounds tested at 50 nM and 500 nM (concentration of the table not stated)
T7 construct: endogenous in cells; host or cells: hPBMCs (Milecell Biotechnologies)
T7 sequence (P30291 whole entry): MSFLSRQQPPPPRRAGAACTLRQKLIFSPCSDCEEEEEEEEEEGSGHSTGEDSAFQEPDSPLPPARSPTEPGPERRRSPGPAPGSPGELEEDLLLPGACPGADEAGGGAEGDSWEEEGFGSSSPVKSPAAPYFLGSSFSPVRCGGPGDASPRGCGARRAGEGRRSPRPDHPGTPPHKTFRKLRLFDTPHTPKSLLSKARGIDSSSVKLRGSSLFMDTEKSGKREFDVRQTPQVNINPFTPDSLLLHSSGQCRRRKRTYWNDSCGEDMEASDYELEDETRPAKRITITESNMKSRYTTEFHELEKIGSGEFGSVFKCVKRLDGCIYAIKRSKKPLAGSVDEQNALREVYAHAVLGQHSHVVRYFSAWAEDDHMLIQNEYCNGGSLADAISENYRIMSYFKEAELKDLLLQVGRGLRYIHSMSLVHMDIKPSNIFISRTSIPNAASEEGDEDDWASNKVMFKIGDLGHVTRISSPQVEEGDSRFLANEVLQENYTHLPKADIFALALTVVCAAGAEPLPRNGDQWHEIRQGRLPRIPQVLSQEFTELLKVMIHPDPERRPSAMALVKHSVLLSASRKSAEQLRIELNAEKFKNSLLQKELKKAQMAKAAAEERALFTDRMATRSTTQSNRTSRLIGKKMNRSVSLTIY
T7 sequence (Q96SW2 whole entry): as the sequence (Q96SW2 whole entry) above
T7 sequence (Q16531 whole entry partner): as the sequence (Q16531 whole entry partner) above

Jurkat = test: Tumor cell proliferation inhibition (CellTiter-Meiluncell Luminescent Cell Viability Assay), Jurkat; conditions: Homo sapiens, 96 h, read-out: inhibitory activity (IC50, nM) against tumor cells proliferation, Jurkat
CAL-62 = test: Tumor cell proliferation inhibition (CellTiter-Meiluncell Luminescent Cell Viability Assay), CAL-62; conditions: Homo sapiens, CAL-62, 96 h, read-out: inhibitory activity (IC50, nM) against tumor cells proliferation, CAL-62
Procedure: as §1, §2, §3

NCI-H1975 = test: Tumor cell proliferation inhibition (CellTiter-Meiluncell Luminescent Cell Viability Assay), NCI-H1975; conditions: Homo sapiens, NCI-H1975, 96 h, read-out: inhibitory activity (IC50, nM) against tumor cells proliferation, H1975
[4] = 50 nM and 500 nM tested (concentration behind the class not stated)
[5] = compounds tested at 50 nM and 500 nM (concentration of the table not stated)
[6] = HTRF inhibitory activity, CEREBLON BINDING kit; read-out: HTRF IC50

T1 sequence (Q13422 whole entry): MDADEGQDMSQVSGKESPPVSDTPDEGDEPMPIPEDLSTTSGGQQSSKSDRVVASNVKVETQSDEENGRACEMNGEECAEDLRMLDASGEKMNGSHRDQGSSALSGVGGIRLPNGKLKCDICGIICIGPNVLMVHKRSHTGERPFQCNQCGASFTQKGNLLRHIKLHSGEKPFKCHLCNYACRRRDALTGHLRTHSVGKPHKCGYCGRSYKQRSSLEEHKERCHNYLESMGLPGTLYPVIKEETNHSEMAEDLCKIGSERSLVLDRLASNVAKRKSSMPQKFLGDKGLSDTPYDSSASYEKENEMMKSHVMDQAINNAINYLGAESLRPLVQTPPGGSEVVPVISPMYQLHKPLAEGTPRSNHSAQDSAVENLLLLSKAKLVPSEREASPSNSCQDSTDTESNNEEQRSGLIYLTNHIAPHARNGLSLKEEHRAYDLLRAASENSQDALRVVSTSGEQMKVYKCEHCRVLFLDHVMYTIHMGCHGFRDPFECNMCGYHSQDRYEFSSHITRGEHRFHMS
T1 sequence (Q96SW2 whole entry): as the sequence (Q96SW2 whole entry) above
T1 sequence (Q16531 whole entry partner): as the sequence (Q16531 whole entry partner) above

SMILES	IC50 (SR) [nM]	IC50 (SW620) [nM]	IC50 (MM.1R) [nM]	IC50 [1] [nM]	IC50 (CCRF-CEM) [nM]	IC50 (Vcap) [nM]	IC50 [2] [nM]	IC50 [3, 6] [nM]	IC50 (MGC803) [nM]	IC50 (Jurkat) [nM]	IC50 (CAL-62) [nM]	IC50 (NCI-H1975) [nM]	IKZF 1 substrate protein remaining % (IKZF1; [5])	IKZF3 substrate protein remaining % (IKZF3; [5])	CK1a substrate protein remaining % (CK1α)	IKZF2 substrate protein remaining % (IKZF2; [5])	Weel substrate protein remaining % (WEE1)	GSPT1 substrate protein remaining % (GSPT1; [5])	further results
O=C1CCC(N2C(=O)c3ccc(CN4CCN(c5ncncn5)CC4)cc3C2=O)C(=O)N1 (stereo not drawn) [GT-06626, 5-((4-(1,3,5-triazin-2-yl)piperazin-1-yl)methyl)-2-(2,6-dioxopiperidin-3-yl)isoindoline-1,3-dione]	–	–	–	–	–	–	–	–	–	–	–	–	–	–	–	–	–	–	IKZF 1 substrate protein remaining % (IKZF1; [4]): B (80%< substrate protein remaining %≤ 100%); IKZF3 substrate protein remaining % (IKZF3; [4]): B (80%< substrate protein remaining %≤ 100%); IC50 (MV-4-11; read-out: inhibitory activity (IC50, nM) against tumor cells proliferation, MV-4-11): 50 to 100 nM; IKZF2 substrate protein remaining % (IKZF2; [4]): B (80%< substrate protein remaining %≤ 100%); GSPT1 substrate protein remaining % (GSPT1; [4]): A (0% ≤ substrate protein remaining % ≤ 80%)
O=C1CCC(N2C(=O)c3ccc(CN4CCN(c5ncnc(Cl)c5Cl)CC4)cc3C2=O)C(=O)N1 (stereo not drawn) [GT-06623, 5-((4-(5,6-dichloropyrimidin-4-yl)piperazin-1-yl)methyl)-2-(2,6-dioxopiperidin-3-yl)isoindoline-1,3-dione]	–	–	–	–	–	–	–	–	–	–	–	–	–	–	–	–	–	–	IC50 (MV-4-11; Homo sapiens, MV4-11, read-out: inhibitory activity (IC50, nM) against tumor cells proliferation, MV-4-11): 100 to 500 nM
O=C1CCC(N2Cc3cc(CN4CCN(c5ccc(Cl)c(Cl)c5)CC4)ccc3C2=O)C(=O)N1 (stereo not drawn) [GT-04437, 3-(5-((4-(3,4-dichlorophenyl)piperazin-1-yl)methyl)-1-oxoisoindolin-2-yl)piperidine-2,6-dione]	100 to 500	50 to 100	5 to 10	1 to 5	5 to 10	10 to 50	100 to 500	500 to 1000	50 to 100	1 to 5	10 to 50	50 to 100	A (0% ≤ substrate protein remaining % ≤ 80%)	A (0% ≤ substrate protein remaining % ≤ 80%)	A (0% ≤ substrate protein remaining % ≤ 80%)	A (0% ≤ substrate protein remaining % ≤ 80%)	A (0% ≤ substrate protein remaining % ≤ 80%)	A (0% ≤ substrate protein remaining % ≤ 80%)	–
O=C1CCC(N2Cc3cc(CN4CCN(c5ccc(Br)cc5)CC4)ccc3C2=O)C(=O)N1 (stereo not drawn)	100 to 500	100 to 500	5 to 10	5 to 10	5 to 10	10 to 50	100 to 500	–	100 to 500	1 to 5	10 to 50	100 to 500	B (80%< substrate protein remaining %≤ 100%)	B (80%< substrate protein remaining %≤ 100%)	A (0% ≤ substrate protein remaining % ≤ 80%)	B (80%< substrate protein remaining %≤ 100%)	B (80%< substrate protein remaining %≤ 100%)	A (0% ≤ substrate protein remaining % ≤ 80%)	IC50 ([3]; read-out: HTRF IC50; HTRF inhibitory activity, CEREBLON BINDING kit): 500 to 1000 nM
O=C1CCC(N2Cc3cc(CN4CCN(c5ccc(Cl)cn5)CC4)ccc3C2=O)C(=O)N1 (stereo not drawn) [GT-04431, 3-(5-((4-(5-chloropyridin-2-yl)piperazin-1-yl)methyl)-1-oxoisoindolin-2-yl)piperidine-2,6-dione]	100 to 500	50 to 100	5 to 10	10 to 50	1 to 5	10 to 50	50 to 100	500 to 1000	50 to 100	1 to 5	5 to 10	50 to 100	A (0% ≤ substrate protein remaining % ≤ 80%)	A (0% ≤ substrate protein remaining % ≤ 80%)	A (0% ≤ substrate protein remaining % ≤ 80%)	A (0% ≤ substrate protein remaining % ≤ 80%)	A (0% ≤ substrate protein remaining % ≤ 80%)	A (0% ≤ substrate protein remaining % ≤ 80%)	–
Cc1cc(Cl)cc(N2CCN(Cc3ccc4c(c3)CN(C3CCC(=O)NC3=O)C4=O)CC2)n1 (stereo not drawn) [GT-04491, 3-(5-((4-(4-chloro-6-methylpyridin-2-yl)piperazin-1-yl)methyl)-1-oxoisoindolin-2-yl)piperidine-2,6-dione]	100 to 500	100 to 500	10 to 50	5 to 10	5 to 10	10 to 50	100 to 500	500 to 1000	500 to 1000	5 to 10	10 to 50	100 to 500	B (80%< substrate protein remaining %≤ 100%)	B (80%< substrate protein remaining %≤ 100%)	A (0% ≤ substrate protein remaining % ≤ 80%)	A (0% ≤ substrate protein remaining % ≤ 80%)	B (80%< substrate protein remaining %≤ 100%)	A (0% ≤ substrate protein remaining % ≤ 80%)	–

Now from value to compound, other results behind:

IC50 (SR) [nM]	IC50 (SW620) [nM]	IC50 (MM.1R) [nM]	IC50 [1] [nM]	IC50 (CCRF-CEM) [nM]	IC50 (Vcap) [nM]	IC50 [2] [nM]	IC50 [3, 6] [nM]	IC50 (MGC803) [nM]	IC50 (Jurkat) [nM]	IC50 (CAL-62) [nM]	IC50 (NCI-H1975) [nM]	SMILES	IKZF 1 substrate protein remaining % (IKZF1; [5])	IKZF3 substrate protein remaining % (IKZF3; [5])	CK1a substrate protein remaining % (CK1α)	IKZF2 substrate protein remaining % (IKZF2; [5])	Weel substrate protein remaining % (WEE1)	GSPT1 substrate protein remaining % (GSPT1; [5])	further results
100 to 500	100 to 500	10 to 50	5 to 10	5 to 10	10 to 50	100 to 500	500 to 1000	100 to 500	5 to 10	10 to 50	100 to 500	O=C1CCC(N2Cc3cc(CN4CCN(c5cc(F)cc(F)c5)CC4)ccc3C2=O)C(=O)N1 (stereo not drawn) [GT-04496, 3-(5-((4-(3,5-difluorophenyl)piperazin-1-yl)methyl)-1-oxoisoindolin-2-yl)piperidine-2,6-dione]	B (80%< substrate protein remaining %≤ 100%)	B (80%< substrate protein remaining %≤ 100%)	A (0% ≤ substrate protein remaining % ≤ 80%)	A (0% ≤ substrate protein remaining % ≤ 80%)	B (80%< substrate protein remaining %≤ 100%)	A (0% ≤ substrate protein remaining % ≤ 80%)	–
10 to 50	10 to 50	1 to 5	1 to 5	1 to 5	5 to 10	10 to 50	500 to 1000	50 to 100	1 to 5	1 to 5	10 to 50	O=C1CCC(N2Cc3cc(CN4CCN(c5cccc(Cl)n5)CC4)ccc3C2=O)C(=O)N1 (stereo not drawn) [GT-04497, 3-(5-((4-(6-chloropyridin-2-yl)piperazin-1-yl)methyl)-1-oxoisoindolin-2-yl)piperidine-2,6-dione]	A (0% ≤ substrate protein remaining % ≤ 80%)	A (0% ≤ substrate protein remaining % ≤ 80%)	A (0% ≤ substrate protein remaining % ≤ 80%)	A (0% ≤ substrate protein remaining % ≤ 80%)	A (0% ≤ substrate protein remaining % ≤ 80%)	A (0% ≤ substrate protein remaining % ≤ 80%)	–

Source: patent EP4745137A1 (Gluetacs Therapeutics (Shanghai) Co., Ltd., priority 2023, dated 2025)
